Source: US12698474B2, “B-cell cultivation method” (priority 2017, dated 2026)

Tested on: (single deposited) (rabbit) B-cells
Experiment: Co-cultivation of single deposited B-cells with EL-4 B5 feeder cells, quantification of IgG in supernatant by ELISA
Type: cell-based
Procedure: Generally, the 96-well multi well plate in which the co-cultivation was performed was centrifuged after seven days of co-cultivation at 300×g for 5 min. 150 μl supernatant was removed and diluted at a ratio of 2:1 with PBS in a second 96-well multi well plate. The antibody was used at a concentration of 50 ng/ml. If the OD was or exceeded 1 after an incubation time of 5 min. a dilution series of from 0.8 to 108 ng/ml IgG was tested.
Specifically, a mixture of 0.5 μg/ml of biotinylated mouse anti-rabbit IgG antibody (Sigma-Aldrich) and 0.35 μg/ml anti-rabbit IgG HRP conjugate (Sigma-Aldrich) was transferred to 384 well streptavidin coated microtiter plates (MicroCoat Biotechnologie GmbH). Dilutions of B-cell supernatants in PBS supplemented with 0.5% BSA and 0.05% Tween®-20 were added and incubated for 90 min at RT. After repeated washing (6×) with PBST (phosphate buffered saline with 0.2% Tween®-20) buffer the plates were developed with BM Blue® HRP substrate solution and color formation was measured by absorbance at 370 nm. A commercial rabbit IgG (Sigma-Aldrich) was used as a calibration standard.
Single cell sorted B-cells were cultured in 96-well plates with 200 μl/well EL-4 B5 medium with Pansorbin Cells (SAC) (Calbiochem (Merck), Darmstadt, Deutschland), EL-4 B5 cells (5×10^4/well) and rabbit thymocyte supernatant (TSN) or cytokine mix (CM) with PMA, respectively, for 7 days at 37° C. in an atmosphere of 5% CO2 in the incubator. B-cell culture supernatants were removed for screening and the cells harvested immediately for variable region gene cloning or frozen at −80° C. in 100 μl RLT buffer (Qiagen, Hilden, Germany).

[1] = PMA alone, in the absence of cytokines and interleukins

`CCCCCCCCCCCCCC(=O)O[C@@H]1[C@@H](C)[C@@]2(O)[C@@H](C=C(CO)C[C@]3(O)C(=O)C(C)=C[C@@H]23)[C@@H]2C(C)(C)[C@]12OC(C)=O` [PMA, (1aR,1bS,4aR,7aS,7bS,8R,9R,9aS)-9a-(acetyloxy)-4a,7b-dihydroxy-3-(hydroxymethyl)-1,1,6,8-tetramethyl-5-oxo-1a,1b,4,4a,5,7a,7b,8,9,9a-decahydro-H-cyclopropa[3,4]benzo[1,2-e]azulen-9-yl myristate] was tested, and the “IgG+ wells [% total]” value (PMA 0.002 ng/ml, 0.1×CM) was “+”, the “IgG+ wells [% total]” value (PMA 0.011 ng/ml, 0.1×CM) was “+” and the “productivity IgG+ [μg/ml]” value (PMA 0.011 ng/ml, 0.1×CM) was “+”. For the same compound, the “IgG+ wells [% total]” value (PMA 0.054 ng/ml, 0.1×CM) was “++++”, the “productivity IgG+ [μg/ml]” value (PMA 0.054 ng/ml, 0.1×CM) was “+++” and the “Average IgG productivity” value (PMA 0.095 ng/ml, CM 1x) was 1.390 µg/mL. The “Number of IgG positive wells [% of total]” value (“Number … [% of total]” below) (PMA 0.095 ng/ml, CM 1x) was 38.1 % of total, the “productivity IgG+ [μg/ml]” value (PMA 0.127 ng/ml, 0.032×CM) was “+” and the “IgG+ wells [% total]” value (PMA 0.127 ng/ml, 0.1×CM) was “++”. For the same compound, the “productivity IgG+ [μg/ml]” value (PMA 0.127 ng/ml, 0.1×CM) was “++++”, the “IgG+ wells [% total]” value (PMA 0.225 ng/ml, 0.1×CM) was “+++++” and the “productivity IgG+ [μg/ml]” value (PMA 0.225 ng/ml, 0.1×CM) was “+++++”. For the same compound, the “IgG+ wells [% total]” value (PMA 0.3 ng/ml, 0.032×CM) was “++++”, the “productivity IgG+ [μg/ml]” value (PMA 0.3 ng/ml, 0.032×CM) was “+++” and the “IgG+ wells [% total]” value (PMA 0.3 ng/ml, 0.1×CM) was “+++++”. For the same compound, the “productivity IgG+ [μg/ml]” value (PMA 0.3 ng/ml, 0.1×CM) was “+++++”, the “Average IgG productivity” value (PMA 0.3 ng/ml, CM 0.01x) was 1.931 µg/mL and the “Number … [% of total]” value (PMA 0.3 ng/ml, CM 0.01x) was 69.0 % of total. For the same compound, the “Average IgG productivity” value (PMA 0.3 ng/ml, CM 0.032x) was 3.476 µg/mL, the “Number … [% of total]” value (PMA 0.3 ng/ml, CM 0.032x) was 70.2 % of total and the “Average IgG productivity” value (PMA 0.3 ng/ml, CM 0.1x) was 4.450 µg/mL. The “Number … [% of total]” value (PMA 0.3 ng/ml, CM 0.1x) was 67.9 % of total, the “Average IgG productivity” value (PMA 0.3 ng/ml, CM 0.32x) was 2.662 µg/mL and the “Number … [% of total]” value (PMA 0.3 ng/ml, CM 0.32x) was 57.1 % of total. The “Average IgG productivity” value (PMA 0.3 ng/ml, CM 1x) was 0.720 µg/mL, the “Number … [% of total]” value (PMA 0.3 ng/ml, CM 1x) was 17.9 % of total and the “IgG+ wells [% total]” value (PMA 0.534 ng/ml, 0.032×CM) was “++”. The “productivity IgG+ [μg/ml]” value (PMA 0.534 ng/ml, 0.032×CM) was “+++”, the “IgG+ wells [% total]” value (PMA 0.534 ng/ml, 0.1×CM) was “+++++” and the “productivity IgG+ [μg/ml]” value (PMA 0.534 ng/ml, 0.1×CM) was “+++”. The “IgG+ wells [% total]” value (PMA 0.712 ng/ml, 0.032×CM) was “++”, the “productivity IgG+ [μg/ml]” value (PMA 0.712 ng/ml, 0.032×CM) was “+++” and the “IgG+ wells [% total]” value (PMA 0.712 ng/ml, 0.1×CM) was “+++”. For the same compound, the “productivity IgG+ [μg/ml]” value (PMA 0.712 ng/ml, 0.1×CM) was “++”, the “IgG+ wells [% total]” value (PMA 0.949 ng/ml, 0.032×CM) was “++++” and the “productivity IgG+ [μg/ml]” value (PMA 0.949 ng/ml, 0.032×CM) was “+++++”. For the same compound, the “Average IgG productivity” value (PMA 0.95 ng/ml, CM 0x) was 1.650 µg/mL, the “Number … [% of total]” value (PMA 0.95 ng/ml, CM 0x) was 28.6 % of total and the “Average IgG productivity” value (PMA 0.95 ng/ml, CM 0.01x) was 4.235 µg/mL. The “Number … [% of total]” value (PMA 0.95 ng/ml, CM 0.01x) was 69.0 % of total, the “Average IgG productivity” value (PMA 0.95 ng/ml, CM 0.032x) was 5.340 µg/mL and the “Number … [% of total]” value (PMA 0.95 ng/ml, CM 0.032x) was 67.9 % of total. The “Average IgG productivity” value (PMA 0.95 ng/ml, CM 0.1x) was 1.623 µg/mL, the “Number … [% of total]” value (PMA 0.95 ng/ml, CM 0.1x) was 50.0 % of total and the “Average IgG productivity” value (PMA 0.95 ng/ml, CM 0.32x) was 0.134 µg/mL. For the same compound, the “Number … [% of total]” value (PMA 0.95 ng/ml, CM 0.32x) was 23.8 % of total, the “Average IgG productivity” value (PMA 0.95 ng/ml, CM 1x) was 0.100 µg/mL and the “Number … [% of total]” value (PMA 0.95 ng/ml, CM 1x) was 8.3 % of total. For the same compound, the “IgG+ wells [% total]” value (PMA 0.95 ng/ml, without CM) was “+”, the “productivity IgG+ [μg/ml]” value (PMA 0.95 ng/ml, without CM) was “+” and the “IgG+ wells [% total]” value (PMA 1.266 ng/ml, 0.032×CM) was “+++”. For the same compound, the “productivity IgG+ [μg/ml]” value (PMA 1.266 ng/ml, 0.032×CM) was “+++++”, the “IgG+ wells [% total]” value (PMA 1.688 ng/ml, 0.032×CM) was “+++++” and the “productivity IgG+ [μg/ml]” value (PMA 1.688 ng/ml, 0.032×CM) was “+++++”. For the same compound, the “IgG+ wells [% total]” value (PMA 1.688 ng/ml, without CM) was “++”, the “productivity IgG+ [μg/ml]” value (PMA 1.688 ng/ml, without CM) was “+++” and the “IgG+ wells [% total]” value (PMA 2.25 ng/ml, 0.032×CM) was “++++”. The “productivity IgG+ [μg/ml]” value (PMA 2.25 ng/ml, 0.032×CM) was “++++”, the “IgG+ wells [% total]” value (PMA 2.251 ng/ml, without CM) was “+++++” and the “productivity IgG+ [μg/ml]” value (PMA 2.251 ng/ml, without CM) was “+++++”. For the same compound, the “Average IgG productivity” value (PMA 3 ng/ml, CM 0.01x) was 3.893 µg/mL, the “Number … [% of total]” value (PMA 3 ng/ml, CM 0.01x) was 69.0 % of total and the “Average IgG productivity” value (PMA 3 ng/ml, CM 0.032x) was 3.480 µg/mL. For the same compound, the “Number … [% of total]” value (PMA 3 ng/ml, CM 0.032x) was 72.6 % of total, the “Average IgG productivity” value (PMA 3 ng/ml, CM 0.1x) was 0.363 µg/mL and the “Number … [% of total]” value (PMA 3 ng/ml, CM 0.1x) was 35.7 % of total. For the same compound, the “Average IgG productivity” value (PMA 3 ng/ml, CM 0.32x) was 0.125 µg/mL, the “Number … [% of total]” value (PMA 3 ng/ml, CM 0.32x) was 13.1 % of total and the “Average IgG productivity” value (PMA 3 ng/ml, CM 1x) was 0.351 µg/mL. For the same compound, the “Number … [% of total]” value (PMA 3 ng/ml, CM 1x) was 13.1 % of total, the “IgG+ wells [% total]” value (PMA 3.999 ng/ml, without CM) was “+++” and the “productivity IgG+ [μg/ml]” value (PMA 3.999 ng/ml, without CM) was “+++”. The “IgG+ wells [% total]” value (PMA 5.331 ng/ml, without CM) was “++++”, the “productivity IgG+ [μg/ml]” value (PMA 5.331 ng/ml, without CM) was “+++++” and the “IgG+ wells [% total]” value (PMA 7.106 ng/ml, without CM) was “+++++”. For the same compound, the “productivity IgG+ [μg/ml]” value (PMA 7.106 ng/ml, without CM) was “++”, the “numbers of IgG positive wells” value [1] was “comparable” and the productivity [1] was “increased”.
